Active and inactive are the calls of the source. No cut-off for these calls is given here.

In ChEMBL document CHEMBL1131737, “An efficient stereoselective synthesis of [3S(1S,9S)]-3-[[[9-(benzoylamino) octahydro-6,10-dioxo-6H-pyridazino-(1,2-a)(1,2)-diazepin-1-yl]-carbonyl ]amino]-4-oxobutanoic acid, an interleukin converting enzyme (ICE) inhibitor” (Bioorg Med Chem Lett, 1999) one finds Activity data, which are given here for one compound.

The target of the test is T1, Caspase-1 (Homo sapiens) (UniProt P29466).
T1 sequence (whole entry): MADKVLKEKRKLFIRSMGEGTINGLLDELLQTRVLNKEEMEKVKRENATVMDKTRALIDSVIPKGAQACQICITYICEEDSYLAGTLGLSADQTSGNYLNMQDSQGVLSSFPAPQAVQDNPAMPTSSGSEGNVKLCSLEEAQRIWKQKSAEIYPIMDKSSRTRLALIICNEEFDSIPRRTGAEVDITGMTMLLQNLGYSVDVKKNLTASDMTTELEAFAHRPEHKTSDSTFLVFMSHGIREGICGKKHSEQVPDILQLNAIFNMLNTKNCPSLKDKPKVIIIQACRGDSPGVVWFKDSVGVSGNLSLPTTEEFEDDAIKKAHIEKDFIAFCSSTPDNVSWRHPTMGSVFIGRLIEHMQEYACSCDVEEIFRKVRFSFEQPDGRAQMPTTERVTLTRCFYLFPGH
In words: Inhibitory activity against IL-1 beta converting enzyme; Active.

In the case of `O=C[C@H](CC(=O)O)NC(=O)[C@@H]1CCCN2C(=O)CC[C@H](NC(=O)c3ccccc3)C(=O)N12`, the outcome was Active.
